pIC50: −log10 of the molar value. Where two headings read alike, the source gives them in different places.
How the values were obtained:
[1] = biological target: T1, GDP loaded biotinylated KRas^G12C protein (Homo sapiens, UniProt P01116, G12C); experiment: KRasG12C functional assay; assay type: biochemical; details: HTRF FRET readout of SOS-mediated nucleotide exchange and GST-Raf RBD binding, samples incubated for 4 hrs; for pIC50: read-out: KRasG12C functional assay IC50 value; for IC50: KRasG12C functional assay IC50 value (μM)
T1 construct: biotin (biotinylated); made in house
T1 sequence (P01116 1-188 isoform P01116-2 G12C): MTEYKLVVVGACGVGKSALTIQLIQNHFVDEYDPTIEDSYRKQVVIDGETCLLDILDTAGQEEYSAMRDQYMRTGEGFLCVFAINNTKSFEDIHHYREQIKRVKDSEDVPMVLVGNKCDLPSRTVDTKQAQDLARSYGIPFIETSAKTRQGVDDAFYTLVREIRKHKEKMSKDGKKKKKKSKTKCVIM
Procedure: KRasG12C Functional Assay
All enzyme and substrate solutions were prepared in assay buffer containing 20 mM HEPES (pH 7.5), 5 mM MgCl2, 150 mM NaCl, and 0.01% Tween 20. […] In a separate mix 20 nM GST-Raf Ras binding domain (GST-Raf RBD, purified in house) and 4 μg/ml anti-GST XL665 antibody (Cisbio) was prepared in assay buffer containing 50 mM Potassium Fluoride and 0.05 mg/ml BSA and equilibrated for 4 hours before adding 0.6 μM Guanosine 5′-[γ-thio]triphosphate (GTPγS, Sigma) and 0.08 μM SOS (purified in house). 5 μl of the GST-RAF RBD mix was then dispensed into each well of the assay plate. […] This is detected simultaneously via the specific binding interaction between active GTPγS KRas^G12C with GST-Raf RBD which brings the europium and XL665 into close proximity enabling an increased FRET signal to be detected on a Pherastar (BMG) plate reader equipped with the HTRF filter module. […] IC50 values were calculated from normalised dose-response response FRET data curve fitted in Genedata screener (Basel, Switzerland).

[2] = biological target: T1, GDP loaded biotinylated KRas^G12C protein; experiment: KRasG12C mass spectrometry adducting assay; assay type: binding; details: test compound final concentration 10 μM, 4 μM KRasG12C, react for 4 hours
Procedure: KRasG12C Mass Spectrometry Adducting Assay
Enzyme solutions were prepared in assay buffer containing 20 mM HEPES (pH 7.5), 5 mM MgCl2, and 150 mM NaCl. […] The plate was sealed before reading on a Xevo G2 QTOF (Waters) and Acquity LC system (Waters). […] Blank samples were run in between each test sample.
Data was analysed in Mass Lynx software (Waters), the Total ion count (TIC) trace was used and the eluted protein peak data combined. Using the combined spectrum the data was deconvoluted using MaxEnt1 method. The peak area for apo-protein KRas^G12C (APO) and KRAS+relative cmpd mass (adduct) were measured, and a percentage adduct was calculated using the following calculation:
Percent adduct=100*(area of adduct peak/(sum of APO+adduct peaks)

SMILES | pIC50 [1] | KRasG12C M.S. Binding Mean adduct % [2] | IC50 [1]
C=CC(=O)N1CCN2c3nc(NCCN(C)C)nc4cc(-c5c(C)ccc6[nH]ncc56)c(Cl)c(c34)OC[C@@H]2C1 (single isomer, unassigned) [Example 80] | 7.74 | 90% | –
CN(C)C/C=C/C(=O)N1CCN2c3ncnc4cc(-c5c(O)cccc5F)c(Cl)c(c34)OC[C@@H]2C1 [Example 12, (E)-1-((8aS)-6-Chloro-5-(2-fluoro-6-hydroxyphenyl)-8a,9,11,12-tetrahydropyrazino[2′,1′:3,4][1,4]oxazepino[5,6,7-de]quinazolin-10 (8H)-yl)-4-(dimethylamino)but-2-en-1-one] | 6.42 | 76% | –
C=CC(=O)N1CCN2c3ncnc4cc(-c5ccc(O)c(C#N)c5)c(Cl)c(c34)OC[C@@H]2C1 [Example 56, 5-[(8aS)-10-Acryloyl-6-chloro-8,8a,9,10,11,12-hexahydropyrazino[2′,1′:3,4][1,4]oxazepino[5,6,7-de]quinazolin-5-yl]-2-hydroxybenzonitrile] | 5.36 | 0% | –
C=CC(=O)N1CCN2c3ncnc4cc(-c5cnccc5C#N)c(Cl)c(c34)OC[C@@H]2C1 [Example 67, 3-[(8aS)-10-Acryloyl-6-chloro-8,8a,9,10,11,12-hexahydropyrazino[2′,1′:3,4][1,4]oxazepino[5,6,7-de]quinazolin-5-yl]pyridine-4-carbonitrile] | 5.19 | 17% | –
C=CC(=O)N1CCN2c3ncnc4cc(-c5c(C)ccc6[nH]ncc56)c(Cl)c(c34)OC[C@@H]2C1 (single isomer, unassigned) [Example 3] | – | 96% | 0.082 µM
C=CC(=O)N1CCN2c3ncnc4cc(-c5ccccc5C)c(Cl)c(c34)OC[C@@H]2C1 [Example 41, 1-[(8aS)-6-Chloro-5-(2-methylphenyl)-8a,9,11,12-tetrahydropyrazino[2′,1′:3,4][1,4]oxazepino[5,6,7-de]quinazolin-10(8H)-yl]prop-2-en-1-one] | 6.32 | 100% | –
C=CC(=O)N1CCN2c3ncnc4cc(-c5cccc(NC(=O)OC)c5)c(Cl)c(c34)OC[C@@H]2C1 [Example 33, Methyl {3-[(8aS)-10-Acryloyl-6-chloro-8,8a,9,10,11,12-hexahydropyrazino[2′,1′:3,4][1,4]oxazepino[5,6,7-de]quinazolin-5-yl]phenyl}carbamate] | 5.16 | 24% | –
C=CC(=O)N1CCN2c3ncnc4cc(-c5cccc6[nH]ccc56)c(Cl)c(c34)OC[C@@H]2C1 [Example 53, 1-[(8aS)-6-Chloro-5-(1H-indol-4-yl)-8a,9,11,12-tetrahydropyrazino[2′,1′:3,4][1,4]oxazepino[5,6,7-de]quinazolin-10(8H)-yl]prop-2-en-1-one] | – | 74% | 1.69 µM
C=CC(=O)N1CCN2c3ncnc4cc(-c5c(O)cccc5OC)c(Cl)c(c34)OC[C@@H]2C1 (single isomer, unassigned) [Example 17] | < 4.00 | 0% | –
C=CC(=O)N1CCN2c3ncnc4cc(-c5cccc6c5COCCO6)c(Cl)c(c34)OC[C@@H]2C1 [Example 43, 1-[(8aS)-6-Chloro-5-(2,3-dihydro-5H-1,4-benzodioxepin-6-yl)-8a,9,11,12-tetrahydropyrazino[2′,1′:3,4][1,4]oxazepino[5,6,7-de]quinazolin-10(8H)-yl]prop-2-en-1-one] | 5.83 | 56% | –

Further lines, with some results ahead:

pIC50 [1] | KRasG12C M.S. Binding Mean adduct % [2] | SMILES | IC50 [1]
5.70 | 64% | C=CC(=O)N1CCN2c3ncnc4cc(-c5cccc6[nH]c(=O)[nH]c56)c(Cl)c(c34)OC[C@@H]2C1 [Example 13, 4-[(8aS)-10-Acryloyl-6-chloro-8,8a,9,10,11,12-hexahydropyrazino[2′,1′:3,4][1,4]-oxazepino[5,6,7-de]quinazolin-5-yl]-1,3-dihydro-2H-benzimidazol-2-one] | –
5.83 | 62% | C=CC(=O)N1CCN2c3ncnc4cc(-c5ccccc5C#N)c(Cl)c(c34)OC[C@@H]2C1 [Example 68, 2-[(8aS)-10-Acryloyl-6-chloro-8,8a,9,10,11,12-hexahydropyrazino[2′,1′:3,4][1,4]oxazepino[5,6,7-de]quinazolin-5-yl]benzonitrile] | –
6.65 | 83% | C=CC(=O)N1CCN2c3nc(N4CCOCC4)nc4cc(-c5c(C)ccc6[nH]ncc56)c(Cl)c(c34)OC[C@@H]2C1 (single isomer, unassigned) [Example 71] | –
7.43 | 81% | C=CC(=O)N1CCN2c3nc(NCCN(C)C)nc4cc(-c5c(C)ccc6[nH]ncc56)c(Cl)c(c34)OC[C@@H]2C1 [Example 78, 1-((8aS)-6-Chloro-2-((2-(dimethylamino)ethyl)amino)-5-(5-methyl-1H-indazol-4-yl)-8a,9,11,12-tetrahydropyrazino[2′,1′:3,4][1,4]oxazepino[5,6,7-de]quinazolin-10 (8H)-yl)prop-2-en-1-one] | –
5.46 | 49% | C=CC(=O)N1CCN2c3ncnc4cc(-c5ccccc5CO)c(Cl)c(c34)OC[C@@H]2C1 [Example 65, 1-[(8aS)-6-Chloro-5-[2-(hydroxymethyl)phenyl]-8a,9,11,12-tetrahydropyrazino[2′,1′:3,4][1,4]oxazepino[5,6,7-de]quinazolin-10(8H)-yl]prop-2-en-1-one] | –
5.20 | 21% | C=CC(=O)N1CCN2c3ncnc4cc(-c5cccc(N=S(C)(C)=O)c5)c(Cl)c(c34)OC[C@@H]2C1 [Example 36, 1-[(8aS)-6-Chloro-5-(3-{[dimethyl(oxido)-lambda~6~- sulfanylidene]amino}phenyl)-8a,9,11,12-tetrahydropyrazino[2′,1′:3,4][1,4]oxazepino[5,6,7-de]quinazolin-10(8H)-yl]prop-2-en-1-one] | –
5.08 | 33% | C=CC(=O)N1CCN2c3ncnc4cc(-c5cccc6nccnc56)c(Cl)c(c34)OC[C@@H]2C1 [Example 32, 1-[(8aS)-6-Chloro-5-(quinoxalin-5-yl)-8a,9,11,12-tetrahydropyrazino[2′,1′:3,4][1,4]oxazepino[5,6,7-de]quinazolin-10(8H)-yl]prop-2-en-1-one] | –
6.02 | 67% | C=CC(=O)N1CCN2c3ncnc4cc(-c5cc(F)ccc5F)c(Cl)c(c34)OC[C@@H]2C1 [Example 40, 1-[(8aS)-6-Chloro-5-(2,5-difluorophenyl)-8a,9,11,12-tetrahydropyrazino[2′,1′:3,4][1,4]oxazepino[5,6,7-de]quinazolin-10(8H)-yl]prop-2-en-1-one] | –
5.01 | 9% | C=CC(=O)N1CCN2c3ncnc4cc(-c5cccc6oc(=O)n(C)c56)c(Cl)c(c34)OC[C@@H]2C1 [Example 47, 4-[(8aS)-10-Acryloyl-6-chloro-8,8a,9,10,11,12-hexahydropyrazino[2′,1′:3,4][1,4]oxazepino[5,6,7-de]quinazolin-5-yl]-3-methyl-1,3-benzoxazol-2(3H)-one] | –
7.92 | 100% | C=CC(=O)N1CCN2c3ncnc4cc(-c5c(C)ccc6[nH]ncc56)c(Cl)c(c34)OCC[C@@H]2C1 (single isomer, unassigned) [Example 81] | –
5.39 | 26% | C=CC(=O)N1CCN2c3ncnc4cc(-c5cnccc5C)c(Cl)c(c34)OC[C@@H]2C1 [Example 55, 1-[(8aS)-6-Chloro-5-(4-methylpyridin-3-yl)-8a,9,11,12-tetrahydropyrazino[2′,1′:3,4][1,4]oxazepino[5,6,7-de]quinazolin-10(8H)-yl]prop-2-en-1-one] | –
5.82 | 65% | C=CC(=O)N1CCN2c3ncnc4cc(-c5cn(C)c6ccccc56)c(Cl)c(c34)OC[C@@H]2C1 [Example 46, 1-[(8aS)-6-Chloro-5-(1-methyl-1H-indol-3-yl)-8a,9,11,12-tetrahydropyrazino[2′,1′:3,4][1,4]oxazepino[5,6,7-de]quinazolin-10(8H)-yl]prop-2-en-1-one] | –
5.23 | 42% | C=CC(=O)N1CCN2c3ncnc4cc(-c5cccc(CC#N)c5)c(Cl)c(c34)OC[C@@H]2C1 [Example 59, {3-[(8aS)-10-Acryloyl-6-chloro-8,8a,9,10,11,12-hexahydropyrazino[2′,1′:3,4][1,4]oxazepino[5,6,7-de]quinazolin-5-yl]phenyl}acetonitrile] | –
